Read-outs that look alike come from different tables or passages of the source.
How the values were obtained:
Ba/F3 EGFR L858R/T790M = experiment: Ba/F3 cell proliferation (MTS) assay; assay type: cell-based, murine; details: Mus musculus
Description: (§1) Murine Ba/F3 cells are engineered to express mutant EGFR protein along with untransformed Ba/F3 cells and are used to performed single drug screens. Cell viability is assessed after 72 hours of compound i.e., compounds of Formula (I), exposure using the colorimetric cell proliferation MTS assay kit (Promega).
(§2) All experimental points were set up in six wells and all experiments were repeated at least three times. […] The curves were fitted using a non-linear regression model with a sigmoidal dose response.

[1] = tested on: Ba/F3 EGFR DEL/T790M/L718Q; experiment: Ba/F3 cell proliferation (MTS) assay; assay type: cell-based, murine; details: Mus musculus
Description: as §1
(§3) All cell lines were maintained in RPMI 1640 (Invitrogen, Carlsbad, CA) supplemented with 10% FBS 100 units/mL penicillin, 100 units/mL streptomycin, and 2 mM glutamine.
(§4) Ba/F3, NIH-3T3, cells were infected with retrovirus and PC9GR4 and HCC827 EPR cells infected with lentivirus according to standard protocols, as described previously (Engelman, J. A., et al., Proc Natl Acad Sci USA. 2005; 102:3788-93). Stable clones were obtained by selection in puromycin (2 μg/ml).
(§5) Growth and inhibition of growth was assessed by MTS assay and was performed according to previously established methods (Zhou, W., et al., Nature. 462, 2009, 1070-4; Ercan, D., et al., Cancer Discov. 934, 2012, 934-47). […] All experimental points were set up in six wells and all experiments were repeated at least three times. […] The curves were fitted using a non-linear regression model with a sigmoidal dose response.

Ba/F3 EGFR L858R/L718Q = experiment: Ba/F3 cell proliferation (MTS) assay; assay type: cell-based, murine; details: Mus musculus
Description: as §1, §3, §4, §5

Ba/F3 EGFR DEL/L718Q = experiment: Ba/F3 cell proliferation (MTS) assay; assay type: cell-based, murine; details: Mus musculus
Description: as §1, §3, §4, §5

Ba/F3 EGFR WT = experiment: Ba/F3 cell proliferation (MTS) assay; assay type: cell-based, murine; details: Mus musculus
Description: as §1, §2

Ba/F3 EGFR DEL/T790M = experiment: Ba/F3 cell proliferation (MTS) assay; assay type: cell-based, murine; details: Mus musculus
Description: as §1, §2

Ba/F3 EGFR DEL = experiment: Ba/F3 cell proliferation (MTS) assay; assay type: cell-based, murine; details: Mus musculus
Description: as §1, §2

[2] = tested on: Ba/F3 EGFR L858R/T790M/L718Q; experiment: Ba/F3 cell proliferation (MTS) assay; assay type: cell-based, murine; details: Mus musculus
Description: as §1, §3, §4, §5

Ba/F3 EGFR L858R = experiment: Ba/F3 cell proliferation (MTS) assay; assay type: cell-based, murine; details: Mus musculus
Description: as §1, §2

Ba/F3 EGFR DEL/844V = experiment: Ba/F3 cell proliferation (MTS) assay; assay type: cell-based, murine; details: Mus musculus
Description: as §1, §3, §4, §5

Ba/F3 EGFR L718Q = experiment: cells; details: Mus musculus, 72 h
Description: as §1, §3
The EGFR L718Q and L844V mutations were introduced via site directed mutagenesis using the Quick Change Site-Directed Mutagenesis kit (Stratagene; La Jolla, CA) according to the manufacturer's instructions. The L718Q mutation was generated using forward primer 5′-[sequence]-3′ (SEQ. ID. NO. 1) and reverse primer 5′ [sequence]-3′ (SEQ. ID. NO. 2). The L844V mutation was generated using forward primer 5′-[sequence]-3′ (SEQ. ID. NO. 3) and reverse primer 5′-[sequence]-3′ (SEQ. ID. NO. 4). All constructs were confirmed by DNA sequencing. The constructs were shuttled into the retroviral vector JP1540 or lentiviral vector JP1698 using the BD Creator™ System (BD Biosciences). […]
Growth and inhibition of growth was assessed by MTS assay and was performed according to previously established methods (Zhou, W., et al., Nature. 462, 2009, 1070-4; Ercan, D., et al., Cancer Discov. 934, 2012, 934-47). […]

[3] = Ba/F3, EGFR L858R/T790M, 72 hours, MTS, read-out: IC50
[4] = Ba/F3, EGFR DEL/T790M/L718Q, 72 hours, MTS, read-out: IC50
[5] = Ba/F3, EGFR L858R/L718Q, 72 hours, MTS, read-out: IC50
[6] = Ba/F3, EGFR DEL/L718Q, 72 hours, MTS, read-out: IC50
[7] = Ba/F3, EGFR WT, 72 hours, MTS, read-out: IC50
[8] = Ba/F3, EGFR DEL/T790M, 72 hours, MTS, read-out: IC50
[9] = Ba/F3, EGFR DEL, 72 hours, MTS, read-out: IC50
[10] = Ba/F3, EGFR L858R/T790M/L718Q, 72 hours, MTS, read-out: IC50
[11] = Ba/F3, EGFR L858R, 72 hours, MTS, read-out: IC50
[12] = Ba/F3, EGFR DEL/844V, 72 hours, MTS, read-out: IC50

| SMILES | IC50 (Ba/F3 EGFR L858R/T790M; [3]) | IC50 [1, 4] | IC50 (Ba/F3 EGFR L858R/L718Q; [5]) | IC50 (Ba/F3 EGFR DEL/L718Q; [6]) | IC50 (Ba/F3 EGFR WT; [7]) | IC50 (Ba/F3 EGFR DEL/T790M; [8]) | IC50 (Ba/F3 EGFR DEL; [9]) | IC50 [2, 10] | IC50 (Ba/F3 EGFR L858R; [11]) | IC50 (Ba/F3 EGFR DEL/844V; [12]) | IC50 (Ba/F3 EGFR L718Q) | other results |
| --- | --- | --- | --- | --- | --- | --- | --- | --- | --- | --- | --- | --- |
| C=CC(=O)Nc1cc(Nc2nccc(-n3ccc4cccnc43)n2)c(OC)cc1N(C)CCN(C)C [Compound I-1, N-(5-((4-(1H-pyrrolo[2,3-b]pyridin-1-yl)pyrimidin-2-yl)amino)-2-((2-(dimethylamino)ethyl)(methyl)amino)-4-methoxyphenyl)acrylamide] | 189 nM | 644 nM | 2060 nM | 176 nM | 323 nM | 64.8 nM | 42.9 nM | 1970 nM | 60 nM | 53.1 nM |  |  |
| C=CC(=O)Nc1cccc(Oc2nc(Nc3ccc(N4CCN(C)CC4)cc3OC)ncc2Cl)c1 [WZ4002] | 14.2 nM | 2010 nM | 2740 nM | 1490 nM | 100 nM | 19.2 nM | 8.4 nM | 2230 nM | 6.8 nM | 956 nM | 2890 nM |  |
| C=CC(=O)Nc1cc(Nc2nccc(-c3cn(C)c4ccccc34)n2)c(OC)cc1N(C)CCN(C)C [AZD9291] |  |  |  |  |  |  |  |  |  |  | 1250 nM | IC50 (Ba/F3 EGFR L858R/T790M; Ba/F3 EGFR, 72 h): 10 nM; IC50 ([1]; Ba/F3 EGFR, 72 h): 576 nM; IC50 (Ba/F3 EGFR L858R/L718Q; Ba/F3 EGFR, 72 h): 1180 nM; IC50 (Ba/F3 EGFR DEL/L718Q; Ba/F3 EGFR, 72 h): 55.4 nM; IC50 (Ba/F3 EGFR WT; Ba/F3 EGFR, 72 h): 23 nM; IC50 (Ba/F3 EGFR DEL/T790M; Ba/F3 EGFR, 72 h): 10 nM; IC50 (Ba/F3 EGFR DEL; Ba/F3 EGFR, 72 h): 1.79 nM; IC50 ([2]; Ba/F3 EGFR, 72 h): 1270 nM; IC50 (Ba/F3 EGFR L858R; Ba/F3 EGFR-L858R, 72 h): 1.98 nM; IC50 (Ba/F3 EGFR DEL/844V; Ba/F3 EGFR, 72 h): 15.1 nM |
